Laboratory results: ChEMBL document CHEMBL1687734, “Pharmacokinetics of EDP-420 after multiple oral doses in healthy adult volunteers and in a bioequivalence study” (Antimicrob Agents Chemother, 2009)

Assays:
[1] = test system: Homo sapiens; test: Toxicity in healthy human in 8 hrs fasted healthy human assessed as changes in vital signs at 200 mg, po administered as single dose of two-100 mg capsules; type: organism-based; conditions: in vivo
[2] = test system: Homo sapiens; test: Toxicity in healthy human in 8 hrs fasted healthy human assessed as changes in physical examinations at 200 mg, po administered as single dose of two-100 mg capsules; type: organism-based; conditions: in vivo
[3] = test system: Homo sapiens; test: Toxicity in healthy human in 8 hrs fasted healthy human assessed as changes in ECG at 200 mg, po administered as single dose of two-100 mg capsules; type: organism-based; conditions: in vivo
[4] = AUC (0 to infinity) in 8 hrs fasted healthy human plasma at 200 mg, po administered as single dose of two-100 mg capsules; type: ADME, organism-based; design: dose 200 mg, route oral, time infinity
[5] = Cmax in 8 hrs fasted healthy human plasma at 200 mg, po administered as single dose of two-100 mg capsules; type: ADME, organism-based; design: dose 200 mg, route oral
[6] = AUC (0 to 24 hrs) in Epithelial lining fluid of healthy human at 400 mg, po administered as single dose; type: ADME, organism-based; conditions: read-out: Drug uptake
[7] = Tmax in high-fat fed healthy human plasma at 200 mg, po administered as single dose of two-100 mg capsules; type: ADME, organism-based
[8] = test system: Homo sapiens; test: Ratio of Cmax in 8 hrs fasted healthy human plasma at 200 mg, po administered as single dose of suspension to cmax in 8 hrs fasted healthy human plasma assessed as EDP-420 9-keto level at 200 mg, po administered as single dose of suspension; type: ADME, organism-based; conditions: in vivo
[9] = Tmax in healthy human plasma at 200 mg, po once daily for 3 days measured after 1 day; type: ADME, organism-based
[10] = test system: Homo sapiens; test: Ratio of AUC (0 to infinity)in 8 hrs fasted healthy human plasma at 200 mg, po administered as single dose of two-100 mg capsules to AUC (0 to infinity) in 8 hrs fasted healthy human plasma assessed as EDP-420 9-keto level at 200 mg, po administered as single dose of two-100 mg capsules; type: ADME, organism-based; conditions: in vivo
[11] = test system: Homo sapiens; test: Toxicity in healthy human in 8 hrs fasted healthy human assessed as changes in liver functions at 200 mg, po administered as single dose of suspension; type: organism-based; conditions: in vivo
[12] = Ratio of AUC (0 to 24 hrs) in Alveolar macrophage of healthy human to AUC (0 to 24 hrs) in healthy human plasma at 400 mg, po administered as single dose; type: ADME, organism-based; conditions: alveolar macrophages / plasma
[13] = AUC (0 to infinity) in healthy human plasma at 200 mg, po once daily for 3 days measured after 3 days; type: ADME, organism-based; design: dose 200 mg, route oral, time infinity
[14] = Half life in high-fat fed healthy human plasma at 200 mg, po administered as single dose of two-100 mg capsules; type: ADME, organism-based
[15] = AUC (0 to last) in healthy human plasma at 200 mg, po once daily for 3 days measured after 3 days; type: ADME, organism-based; design: dose 200 mg, route oral, time 0 - last
[16] = test system: Homo sapiens; test: Toxicity in high-fat fed healthy human assessed as changes in ECG at 200 mg, po administered as single dose of two-100 mg capsules; type: organism-based; conditions: in vivo
[17] = AUC (0 to last) in healthy human plasma at 200 mg, po once daily for 3 days measured after 1 day; type: ADME, organism-based; design: dose 200 mg, time 0 - last, route oral
[18] = test system: Homo sapiens; test: Toxicity in healthy human assessed as incidence of severe adverse events at 200 mg, po once daily for 3 days; type: organism-based; conditions: in vivo, 72 h
[19] = test system: Homo sapiens; test: Toxicity in healthy human in 8 hrs fasted healthy human assessed as changes in liver functions at 200 mg, po administered as single dose of two-100 mg capsules; type: organism-based; conditions: in vivo
[20] = AUC (0 to infinity) in high-fat fed healthy human plasma at 200 mg, po administered as single dose of two-100 mg capsules; type: ADME, organism-based; design: dose 200 mg, route oral, time infinity
[21] = test system: Homo sapiens; test: Toxicity in high-fat fed healthy human assessed as changes in liver functions at 200 mg, po administered as single dose of two-100 mg capsules; type: organism-based; conditions: in vivo
[22] = Tmax in healthy human plasma at loading dose of 400 mg/day, po once daily for 3 days measured after 1 day; type: ADME, organism-based
[23] = Half life in healthy human plasma at 400 mg administered once on day 1 followed by 200 mg once daily for 2 days during 3 days of treatment measured after 3 days; type: ADME, organism-based
[24] = Tmax in 8 hrs fasted healthy human plasma at 200 mg, po administered as single dose of two-100 mg capsules; type: ADME, organism-based
[25] = test system: Homo sapiens; test: Toxicity in high-fat fed healthy human assessed as incidence of severe adverse events at 200 mg, po administered as single dose of two-100 mg capsules; type: organism-based; conditions: in vivo
[26] = test system: Homo sapiens; test: Ratio of AUC (0 to 24 hrs) in healthy human plasma at 200 mg, po once daily for 3 days measured after 3 days to AUC (0 to 24 hrs) in healthy human plasma at 200 mg, po once daily for 3 days measured after 1 day; type: ADME, organism-based; conditions: in vivo
[27] = Tmax in healthy human plasma at 400 mg administered once on day 1 followed by 200 mg once daily for 2 days during 3 days of treatment measured after 3 days; type: ADME, organism-based
[28] = test system: Homo sapiens; test: Ratio of AUC (0 to 24 hrs) in healthy human plasma at 200 mg, po once daily for 3 days measured on day 3 to AUC (0 to 24 hrs) in healthy human plasma at 200 mg, po once daily for 3 days measured on day 1; type: ADME, organism-based; conditions: in vivo
[29] = Half life in 8 hrs fasted healthy human plasma at 200 mg, po administered as single dose of two-100 mg capsules; type: ADME, organism-based
[30] = test system: Homo sapiens; test: Toxicity in healthy human in 8 hrs fasted healthy human assessed as changes in vital signs at 200 mg, po administered as single dose of suspension; type: organism-based; conditions: in vivo
[31] = AUC (0 to last) in 8 hrs fasted healthy human plasma at 200 mg, po administered as single dose of suspension; type: ADME, organism-based; design: dose 200 mg, route oral, time 0 - last
[32] = test system: Homo sapiens; test: Toxicity in high-fat fed healthy human assessed as changes in physical examinations at 200 mg, po administered as single dose of two-100 mg capsules; type: organism-based; conditions: in vivo
[33] = AUC (0 to last) in high-fat fed healthy human plasma at 200 mg, po administered as single dose of two-100 mg capsules; type: ADME, organism-based; design: dose 200 mg, time 0 - last, route oral
[34] = test system: Homo sapiens; test: Toxicity in healthy human in 8 hrs fasted healthy human assessed as changes in ECG at 200 mg, po administered as single dose of suspension; type: organism-based; conditions: in vivo
[35] = Cmax in high-fat fed healthy human plasma at 200 mg, po administered as single dose of two-100 mg capsules; type: ADME, organism-based; design: dose 200 mg, route oral
[36] = test system: Homo sapiens; test: Toxicity in healthy human in 8 hrs fasted healthy human assessed as incidence of severe adverse events at 200 mg, po administered as single dose of suspension; type: organism-based; conditions: in vivo
[37] = AUC (0 to last) in healthy human plasma at 400 mg administered once on day 1 followed by 200 mg once daily for 2 days during 3 days of treatment measured after 3 days; type: ADME, organism-based; design: dose 400 mg, time 0 - last
[38] = Drug concentration in Epithelial lining fluid of healthy human at 400 mg, po administered as single dose after 24 hrs; type: ADME, organism-based; conditions: read-out: Drug uptake
[39] = test system: Homo sapiens; test: Toxicity in healthy human in 8 hrs fasted healthy human assessed as incidence of severe adverse events at 200 mg, po administered as single dose of two-100 mg capsules; type: organism-based; conditions: in vivo

AUC(0-inf) [4]: 9030 ng·h/mL | Cmax [5]: 405 ng/mL | AUC [6]: 212000 ng·h/mL | Tmax [7]: 4 h | Ratio [8]: 0.065 | Tmax [9]: 3.5 h | Ratio [10]: 0.093 | Kp [12]: 245 | AUC(0-inf) [13]: 16400 ng·h/mL | half-life [14]: 16.9 h | AUC(0-t) at 72 h [15]: 16400 ng·h/mL | AUC(0-t) at 24 h [17]: 6200 ng·h/mL | AUC(0-inf) [20]: 9040 ng·h/mL | Tmax [22]: 4 h | half-life [23]: 17.7 h | Tmax [24]: 3.5 h | Ratio AUC [26]: 1.4 | Tmax [27]: 3.5 h | Ratio AUC [28]: 1.41 | half-life [29]: 16.9 h | AUC(0-t) [31]: 8270 ng·h/mL | AUC(0-t) [33]: 8940 ng·h/mL | Cmax [35]: 394 ng/mL | AUC(0-t) [37]: 15000 ng·h/mL | concentration at 24 h [38]: 6500 ng/mL
Structure (SMILES): CC[C@H]1OC(=O)[C@H](C)C(=O)[C@H](C)[C@@H](O[C@@H]2O[C@H](C)C[C@H](N(C)C)[C@H]2O)[C@@]2(C)C[C@@H](C)/C(=N\C(C)=O)[C@H](C)[C@@H](OC/C(=N\OCc3ccc(-n4cccn4)nc3)CO2)[C@]1(C)O [MODITHROMYCIN]
Activity [1]: Non-toxic | Activity [2]: Non-toxic | Activity [3]: Non-toxic | Activity [11]: Non-toxic | Activity [16]: Non-toxic | Activity [18]: Non-toxic | Activity [19]: Non-toxic | Activity [21]: Non-toxic | Activity [25]: Non-toxic | Activity [30]: Non-toxic | Activity [32]: Non-toxic | Activity [34]: Non-toxic | Activity [36]: Non-toxic | Activity [39]: Non-toxic
